# Test results from article PMC12259270, “Sensory neuron–expressed FGF13 controls nociceptive signaling in diabetic neuropathy models” (The Journal of Clinical Investigation, 2025).
# Several values for one entry are separate records, joined by “and”; a condition that tells them apart may be missing. Equal values may be shown once. Residues, ends and D or L forms follow the SMILES beside them. *: point of attachment. NHPh = c1ccc(N*)cc1
# Molecular target: T1, human Nav1.7 (Homo sapiens, UniProt Q15858)
# T1 construct: expressed in transfected cells; host or cells: HEK293 stably expressing human Nav1.7
# T1 sequence (Q92913 1-192 partner limits assumed): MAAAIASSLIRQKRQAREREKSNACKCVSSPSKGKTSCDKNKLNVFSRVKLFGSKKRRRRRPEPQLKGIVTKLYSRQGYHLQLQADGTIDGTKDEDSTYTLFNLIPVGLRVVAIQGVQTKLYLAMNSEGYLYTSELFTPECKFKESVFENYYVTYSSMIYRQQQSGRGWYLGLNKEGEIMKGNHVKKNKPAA
# T1 sequence (Q15858 1-1977 isoform Q15858-3): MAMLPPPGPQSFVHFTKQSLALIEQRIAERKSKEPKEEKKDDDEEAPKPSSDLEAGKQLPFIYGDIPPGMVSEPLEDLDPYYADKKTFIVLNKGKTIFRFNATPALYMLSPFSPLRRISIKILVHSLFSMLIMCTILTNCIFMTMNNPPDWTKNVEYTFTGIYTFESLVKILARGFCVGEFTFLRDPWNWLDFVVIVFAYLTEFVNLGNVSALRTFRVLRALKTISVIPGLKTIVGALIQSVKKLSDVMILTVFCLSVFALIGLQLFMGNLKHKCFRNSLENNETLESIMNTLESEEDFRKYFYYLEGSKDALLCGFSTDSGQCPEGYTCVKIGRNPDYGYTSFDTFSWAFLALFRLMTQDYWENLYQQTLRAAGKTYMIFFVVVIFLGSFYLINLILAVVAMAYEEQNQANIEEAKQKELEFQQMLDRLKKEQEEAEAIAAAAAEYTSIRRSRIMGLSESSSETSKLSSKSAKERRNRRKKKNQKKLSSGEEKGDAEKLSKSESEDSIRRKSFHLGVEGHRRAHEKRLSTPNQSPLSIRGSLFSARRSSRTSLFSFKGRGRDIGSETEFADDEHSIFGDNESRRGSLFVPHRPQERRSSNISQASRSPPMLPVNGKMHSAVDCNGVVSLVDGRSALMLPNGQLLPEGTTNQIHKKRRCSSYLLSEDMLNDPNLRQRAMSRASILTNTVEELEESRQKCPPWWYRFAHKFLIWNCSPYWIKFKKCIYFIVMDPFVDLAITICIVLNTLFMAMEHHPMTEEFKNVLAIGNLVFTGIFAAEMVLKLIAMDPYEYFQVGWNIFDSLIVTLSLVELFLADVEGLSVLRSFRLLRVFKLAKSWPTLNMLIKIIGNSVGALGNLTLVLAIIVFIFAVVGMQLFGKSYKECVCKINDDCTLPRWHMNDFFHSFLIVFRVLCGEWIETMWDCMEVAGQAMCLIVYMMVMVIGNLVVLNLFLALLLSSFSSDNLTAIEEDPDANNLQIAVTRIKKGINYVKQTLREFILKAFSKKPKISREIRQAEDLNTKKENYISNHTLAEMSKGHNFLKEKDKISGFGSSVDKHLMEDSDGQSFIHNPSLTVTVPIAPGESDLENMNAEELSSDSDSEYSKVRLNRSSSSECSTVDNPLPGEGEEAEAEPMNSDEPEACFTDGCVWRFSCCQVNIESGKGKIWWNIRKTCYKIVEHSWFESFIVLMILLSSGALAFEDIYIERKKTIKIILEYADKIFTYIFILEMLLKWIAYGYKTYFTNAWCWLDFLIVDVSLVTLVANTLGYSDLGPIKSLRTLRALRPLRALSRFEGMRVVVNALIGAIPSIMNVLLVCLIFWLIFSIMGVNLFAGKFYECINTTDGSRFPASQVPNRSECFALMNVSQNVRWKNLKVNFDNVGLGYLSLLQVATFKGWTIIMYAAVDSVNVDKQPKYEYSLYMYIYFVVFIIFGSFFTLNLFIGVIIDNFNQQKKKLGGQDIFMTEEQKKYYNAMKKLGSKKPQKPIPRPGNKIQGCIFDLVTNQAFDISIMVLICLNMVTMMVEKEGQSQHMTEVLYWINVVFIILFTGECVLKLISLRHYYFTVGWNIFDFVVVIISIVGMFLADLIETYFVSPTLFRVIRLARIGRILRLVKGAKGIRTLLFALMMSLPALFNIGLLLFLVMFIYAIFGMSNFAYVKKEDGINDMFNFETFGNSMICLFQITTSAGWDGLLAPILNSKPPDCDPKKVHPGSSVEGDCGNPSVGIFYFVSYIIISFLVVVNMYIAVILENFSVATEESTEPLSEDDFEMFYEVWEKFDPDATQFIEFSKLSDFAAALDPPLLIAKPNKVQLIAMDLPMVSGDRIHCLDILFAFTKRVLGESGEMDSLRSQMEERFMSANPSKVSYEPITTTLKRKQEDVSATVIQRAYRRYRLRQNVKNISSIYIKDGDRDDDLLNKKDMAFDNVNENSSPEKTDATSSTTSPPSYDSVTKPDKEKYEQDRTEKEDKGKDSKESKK
# Assay: Whole-cell patch-clamp, HEK293 cells stably expressing human Nav1.7 with GFP or FGF13-GFP
# Assay type: cell-based
# Parameters: Nav1.7 repriming time course, Mean / Figure 4I, Mean versus Time (ms): unit not given here
# Details: for Figure 4G, Mean per step (normalized): N 10; for Figure 4H, Mean per step (step 1 = 100): N 9
# Protocol: Whole-cell patch clamp electrophysiology
# HEK293-Nav1.7 cells, HEK293 stably expressing human Nav1.6 (HEK-Nav1.6), HEK293 stably expressing human Nav1.5 (HEK-Nav1.5), human hIPSC-derived sensory neurons (RealDRGTM from Anatomic Incorporated 1020F1-1M) and donor-derived DRG neurons were plated at low density on glass coverslips and processed for whole-cell patch clamp electrophysiology in voltage-clamp and/or current clamp mode. Whole-cell patch electrophysiological experiments were conducted following previously published studies (26). Current densities were obtained by dividing INa amplitude by membrane capacitance. Current –voltage relationships were generated by plotting current density as a function of the […]. Conductance (G Na) was calculated by the […]
# where INa is the current amplitude at voltage Vm, and Erev is the Na+ reversal potential.
# Activation curves were derived by plotting normalized GNa as a function of test potential and fitted using […]
# Where GNa,Max is the maximum conductance, Va is the membrane potential of half-maximal activation, Em is the membrane voltage and k is the slope factor. For steady -state inactivation, normalized current amplitude (INa/INa,Max) at the test potential was plotted as a function of prepulse potential (Vm) and fitted using the […]
# Where Vh is the potential of half-maximal inactivation, E m is the membrane voltage, and k is the slope factor.
# Transient INa inactivation decay was estimated with the standard exponential equation. Inactivation time constant (tau, τ) was fitted with the following equation: […]
# where I(t) is the amplitude of the current at time t and Iss is the steady-state current during a single voltage-step.
# The goodness of fitting was determined by correlation coefficient (R), and the cutoff of R was set at 0.85. To observe effects on long-term inactivation (LTI), a four-step protocol was employed during which cells were subjected to four 0 mV, 20 ms depolarization pulses separated by −90 mV, 40 ms recovery intervals. To control for various cell sizes, the current densities were calculated by dividing INa peak current amplitude/membrane capacitance (Cm). To represent the fraction of channels entering into LTI, the peak INa observed during depolarization cycles 2-4 was normalized to the peak INa observed during depolarization cycle 1 (INa/INa,Cycle 1) and plotted as a function of the depolarization cycle.
# The cumulative (frequency-dependent) use-dependency was determined by applying 20 pulses with a depolarization to −10 mV (50 ms duration) and 50 ms recovery intervals with a train of 20 pulses at 10 Hz from a holding potential at -70 mV. The current pulses were normalized to the first reco rded pulse and the currents at the 2nd to 20th pulses were compared. The same train was used to record use-dependency at various frequencies […]
# The rate of recovery from inactivation was recorded at -80 mV with a standard repriming voltage protocol.
# The cells were prepulsed to -20 mV for 20 ms to inactivate all currents, then driven back to the recovery potential (Vrec) for increasing recovery durations before the test pulse to 0 mV. The maximum pulse rate was 0.5 Hz. The […]
# follows previous publications (16). The time constants were estimated from single exponential decay to time courses measured at recovery potentials ranging from -140 to -60 mV with the protocol as mentioned above.
# Electrophysiological Recordings
# HEK293 cells: Electrophysiological recordings in HEK293 stably expressing Nav1.7 (HEK-Nav1.7), Nav1.5 (HEK-Nav1.5) or Nav1.6 (HEK-Nav1.6) were performed at room temperature using a MultiClamp 700B or an Axopatch 200B amplifier (Molecular Devices) after incubating coverslips for 60 minutes either with 0.1% DMSO or 50 μM PW164 or ZL192 in the extracellular solution. The composition of recording solutions consisted of the […]
# following salts: extracellular (mM): 140 NaCl, 3 KCl, 1 MgCl2, 1 CaCl2, 10 HEPES, 10 glucose, pH 7.3; […]
# intracellular (mM): 130 CH3O3 SCs, 1 EGTA, 10 NaCl, 10 HEPES, pH 7.3. […]
smiles,measurement,setting,value
CC(=O)N[C@@H](Cc1ccccc1)C(=O)N[C@@H](CC(C)C)C(=O)N1CCC[C@H]1C(=O)N[C@@H](CCCCN)C(=O)Nc1ccccc1 [ZL192] (Ac-FLPK-NHPh),"Figure 4G, Mean per step (normalized)","Nav1.7 + FGF13-GFP, Steps 20",0.8672
same,"Figure 4I, Mean versus Time (ms)","Nav1.7 + FGF13-GFP, Time (ms) 2, N 7",-2.382
same,"Figure 4I, Mean versus Time (ms)","Nav1.7 + FGF13-GFP, Time (ms) 5, N 7",-10.2316
same,"Figure 4I, Mean versus Time (ms)","Nav1.7 + FGF13-GFP, Time (ms) 9, N 7",-21.032
same,"Figure 4I, Mean versus Time (ms)","Nav1.7 + FGF13-GFP, Time (ms) 17, N 7",-28.22
same,"Figure 4I, Mean versus Time (ms)","Nav1.7 + FGF13-GFP, Time (ms) 33, N 7",-35.2152
same,"Figure 4I, Mean versus Time (ms)","Nav1.7 + FGF13-GFP, Time (ms) 65, N 7",-41.6453
same,"Figure 4I, Mean versus Time (ms)","Nav1.7 + FGF13-GFP, Time (ms) 129, N 7",-47.08
same,"Figure 4I, Mean versus Time (ms)","Nav1.7 + FGF13-GFP, Time (ms) 257, N 7",-58.7924
same,"Figure 4I, Mean versus Time (ms)","Nav1.7 + FGF13-GFP, Time (ms) 513, N 7",-60.0808
same,"Figure 4I, Mean versus Time (ms)","Nav1.7 + FGF13-GFP, Time (ms) 1025, N 7",-61.473
same,"Figure 4I, Mean versus Time (ms)","Nav1.7 + FGF13-GFP, Time (ms) 2000, N 7",-62.66
same,"Current density pA/pF (Figure 4D), individual cells",Nav1.7 + GFP,-42.7131 pA/pF and -116.886 pA/pF and -86.2507 pA/pF and -55.3628 pA/pF and -87.5203 pA/pF and -98.7467 pA/pF and -44.4757 pA/pF and -64.4298 pA/pF and -57.1752 pA/pF and -107.666 pA/pF and -47.813 pA/pF
same,"Figure 4H, Mean per step (step 1 = 100)","Nav1.7 + GFP, Steps 1",100
same,"Figure 4G, Mean per step (normalized)","Nav1.7 + GFP, Steps 1",1
same,"Figure 4H, Mean per step (step 1 = 100)","Nav1.7 + GFP, Steps 2",67.9415
same,"Figure 4H, Mean per step (step 1 = 100)","Nav1.7 + GFP, Steps 3",62.3546
same,"Figure 4G, Mean per step (normalized)","Nav1.7 + GFP, Steps 3",0.8342
same,"Figure 4H, Mean per step (step 1 = 100)","Nav1.7 + GFP, Steps 4",60.931
same,"Figure 4G, Mean per step (normalized)","Nav1.7 + GFP, Steps 5",0.7578
same,"Figure 4G, Mean per step (normalized)","Nav1.7 + GFP, Steps 10",0.7548
same,"Figure 4G, Mean per step (normalized)","Nav1.7 + GFP, Steps 15",0.7445
same,"Figure 4G, Mean per step (normalized)","Nav1.7 + GFP, Steps 20",0.751
same,"Figure 4I, Mean versus Time (ms)","Nav1.7 + GFP, Time (ms) 2, N 6",-1.684
same,"Figure 4I, Mean versus Time (ms)","Nav1.7 + GFP, Time (ms) 5, N 6",-3.032
same,"Figure 4I, Mean versus Time (ms)","Nav1.7 + GFP, Time (ms) 9, N 6",-5.9665
same,"Figure 4I, Mean versus Time (ms)","Nav1.7 + GFP, Time (ms) 17, N 6",-10.1843
same,"Figure 4I, Mean versus Time (ms)","Nav1.7 + GFP, Time (ms) 33, N 6",-13.6758
same,"Figure 4I, Mean versus Time (ms)","Nav1.7 + GFP, Time (ms) 65, N 6",-16.716
same,"Figure 4I, Mean versus Time (ms)","Nav1.7 + GFP, Time (ms) 129, N 6",-20.6484
same,"Figure 4I, Mean versus Time (ms)","Nav1.7 + GFP, Time (ms) 257, N 6",-23.8114
same,"Figure 4I, Mean versus Time (ms)","Nav1.7 + GFP, Time (ms) 513, N 6",-25.3409
same,"Figure 4I, Mean versus Time (ms)","Nav1.7 + GFP, Time (ms) 1025, N 6",-26.7193
same,"Figure 4I, Mean versus Time (ms)","Nav1.7 + GFP, Time (ms) 2000, N 6",-29.0414
